Test results from patent publication US5196094A, “Separation of 1,1,1-trichloroethane from the lower alcohols by extractive distillation” (priority 1991, dated 1993).

Legend:
Type in all cases: physicochemical
[1] = Vapor-liquid equilibrium still, separation of 1,1,1-trichloroethane from isopropanol
[2] = Vapor-liquid equilibrium still, separation of 1,1,1-trichloroethane from methanol; conditions: 70 g azeotrope, 30 g agent, refluxed eight hours
[3] = Run in glass perforated plate rectification column, isopropanol
Method: (§1) A solution comprising 250 grams of the 1,1,1-trichloroethane-isopropanol azeotrope was placed in the stillpot of the 7.3 theoretical plate rectification column. […] The temperature of the extractive agent as it entered the top of the column was 73° C. After establishing the feed rate of the extractive agent, the heat input to the 1,1,1-trichloroethane-isopropanol in the stillpot was adjusted to give a total reflux rate of 40 ml/min. After 1.5 hours operation, overhead and bottoms samples were collected and analysed.

[4] = Vapor-liquid equilibrium still, separation of 1,1,1-trichloroethane from n-propanol; conditions: 1,1,1-trichloroethane from n-propanol; vapor-liquid equilibrium still
[5] = Run in glass perforated rectification column, t-butanol
Method: as §1, with “1,1,1-trichloroethane-t-butanol” for “1,1,1-trichloroethane-isopropanol”, “80°” for “73°”, “analysed. The overhead analysis was 95.7% 1,1,1-trichloroethane, 4.3% t-butanol and the bottoms analysis was 33.5% 1,1,1-trichloroethane, 66.5% t-butanol. This gives an average relative volatility of 1.68 for each theoretical plate.” for “analysed.”

[6] = Vapor-liquid equilibrium still, separation of 1,1,1-trichloroethane from 2-butanol
[7] = Run in glass perforated plate rectification column, ethanol; conditions: 1 h
Method: A solution comprising 250 grams of the 1,1,1-trichloroethane ethanol azeotrope was placed in the stillpot of the 7.3 theoretical plate rectification column. […] The temperature of the extractive agent as it entered the top of the column was 70° C. After establishing the feed rate of the extractive agent, the heat input to the 1,1,1-trichloroethane ethanol in the stillpot was adjusted to give a total reflux rate of 40 ml/min. After 1.5 hours operation, overhead and bottoms samples were collected and analysed.

[8] = Run in glass perforated plate rectification column, 2-butanol
Method: A solution comprising 250 grams of the 1,1,1-trichloroethane-2-butanol azeotrope was placed in the stillpot of the 7.3 theoretical plate rectification column. […] The temperature of the extractive agent as it entered the column was 83° C. After establishing the feed rate of the extractive agent, the heat input to the 1,1,1-trichloroethane-2-butanol in the stillpot as adjusted to give a total reflux rate of 40 ml/min. After 1.5 hours operation, overhead and bottoms samples were collcted and analysed. The overhead analysis was 99.7% 1,1,1-trichloroetahne, 0.3% 2-butanol and the bottoms analysis was 55.1% 1,1,1-trichloroethane, 44.9% 2-butanol. This gives an average relative volatility of 2.15 for each theoretical plate.

[9] = Vapor-liquid equilibrium still, separation of 1,1,1-trichloroethane from t-butanol; conditions: 1,1,1-trichloroethane from t-butanol
[10] = Run in glass perforated plate rectification column, n-propanol
Method: A solution comprising 250 grams of the 1,1,1-trichloroethane-n-propanol azeotrope was placed in the stillpot of the 7.3 theoretical plate rectification column. […] The temperature of the extractive agent as it entered the top of the column was 75° C. After establishing the feed rate of the extractive agent, the heat input to the 1,1,1-trichloroethane […] in the stillpot was adjusted to give a total reflux rate of 40 ml/min. After 1.5 hours operation, overhead and bottoms samples were collected and analysed. […] This gives an average relative volatility of 2.33 for each theoretical plate.

[11] = Run in glass perforated plate rectification column, methanol; conditions: 1 h
Method: A solution comprising 250 grams of the 1,1,1-trichloroethane-methanol azeotrope was placed in the stillpot of a 7.3 theoretical plate glass perforated plate rectification column. […] The temperature of the extractive agent as it entered the top of the column was 65° C. After establishing the feed rate of the extractive agent, the heat input to the 1,1,1-trichloroethane-methanol in the stillpot was adjusted to give a total reflux rate of 40 ml/min. After 1.5 hours operation, overhead and bottoms samples were collected and analysed by gas chromatography. The overhead analysis was 90.2% 1,1,1-trichloroethane, 9.8% methanol and the bottoms analysis was 0.8% 1,1,1-trichloroethane, 99.2% methanol.

[12] = […], average for each theoretical plate

SMILES: C[S+](C)[O-] [Dimethylsulfoxide]
- Relative Volatility [1]: 2.5
- liquid composition, 1,1,1-trichloroethane [2]: 11%
- liquid composition, methanol [2]: 89%
- vapor composition, 1,1,1-trichloroethane [2]: 24.2%
- vapor composition, methanol [2]: 75.8%
- Relative Volatility ([3]; 1 h): 2.5
- Relative Volatility [3, 12]: 2.2
- Weight % CH3 CCl3 ([3]; bottoms, 1 h): 27.8%
- Weight % Isopropanol ([3]; bottoms, 1 h): 72.2%
- Weight % CH3 CCl3 ([3]; overhead, 1 h): 99.6%
- Weight % Isopropanol ([3]; overhead, 1 h): 0.4%
- Relative Volatility [4]: 2.3
- Relative Volatility ([5]; 1 h): 1.68
- Relative Volatility [5, 12]: 1.68
- Weight % CH3 CCl3 ([5]; bottoms, 1 h): 43.4%
- Weight % t-Butanol ([5]; bottoms, 1 h): 56.6%
- Weight % CH3 CCl3 ([5]; overhead, 1 h): 97.1%
- Weight % t-Butanol ([5]; overhead, 1 h): 2.9%
- Relative Volatility [6]: 2.2
- Relative Volatility [7]: 2.1
- Weight % CH3 CCl3 ([7]; bottoms): 13.6%
- Weight % Ethanol ([7]; bottoms): 86.4%
- Weight % CH3 CCl3 ([7]; overhead): 97.3%
- Weight % Ethanol ([7]; overhead): 2.7%
- Relative Volatility ([8]; 1 h): 2.1
- Relative Volatility [8, 12]: 2.15
- Weight % 2-Butanol ([8]; bottoms, 1 h): 46.9%
- Weight % CH3 Cl3 ([8]; bottoms, 1 h): 53.1%
- Weight % 2-Butanol ([8]; overhead, 1 h): 0.4%
- Weight % CH3 Cl3 ([8]; overhead, 1 h): 99.6%
- Relative Volatility [9]: 1.7
- Relative Volatility ([10]; 1 h): 2.17
- Relative Volatility [10, 12]: 2.33
- Weight % CH3 CCl3 ([10]; bottoms, 1 h): 40%
- Weight % n-Propanol ([10]; bottoms, 1 h): 60%
- Weight % CH3 CCl3 ([10]; overhead, 1 h): 99.5%
- Weight % n-Propanol ([10]; overhead, 1 h): 0.5%
- Relative Volatility [11]: 2.13
- Weight % CH3 CCl3 ([11]; bottoms): 3.5%
- Weight % Methanol ([11]; bottoms): 96.5%
- Weight % CH3 CCl3 ([11]; overhead): 90.2%
- Weight % Methanol ([11]; overhead): 9.8%
